Test results from US20260294922A1, “Inhibitors of JUN N-Terminal Kinases (JNK1, JNK2, and/or JNK3) and Mitogen-Activated Protein Kinases (MAPK8, MAPK9, and/or MAPK10) and Methods of Using Same” (Baylor College of Medicine, priority 2023, published 2026).
In brackets after ≈: the same amount, converted by molar mass. Entries after “also recorded” stand apart in the source; their conditions may differ.

Legend:
JNK1 [1] = biological target: T1, JNK1 (Homo sapiens, UniProt P45983); experiment: JNK1 kinase (intrinsic ATPase, Kinase-Glo) assay; type: biochemical
Description: JNK1, JNK2, and JNK3 hydrolyze ATP to ADP without any peptide substrates. This allows a very robust and fast endpoint assay where the remaining concentration of ATP is measured (BMG ClarioStar Plus plate reader) using the Kinase-Glo Assay kit from Promega (V6711). A luminescence signal is measured, which is produced by the catalytic conversion of beetle luciferin to oxyluciferin by luciferase. Potential inhibition of luciferase (i.e., false negatives) is easily detected, because assays without kinase are always included, and less ATP than is present in this control reaction could also indicate an inhibition of luciferase, which can be excluded by a counter screen with only luciferase.
To mitigate violation of the linear initial velocity principle, which is a problem in end-point assays when doing dose-responses, the enzyme concentration was carefully optimized, in a total assay volume of 25 μL. […] The kinase reaction was done for 30 or 60 min at 30° C., and detection of leftover ATP was measured according to Promega's protocol. […] Fractional activities were obtained from normalized data. Non-linear regression (GraphPad Prism7) and a modified Morrison equation for tight binding was used to determine apparent Ki values for inhibitors, assuming no particular mode of inhibition. An orthogonal binding assay (LanthaScreen) was outsourced to ThermoFisher Scientific's SelectScreen Services to determine IC50 values.

JNK2 [2] = biological target: T2, JNK2 (Homo sapiens, UniProt P45984); experiment: JNK2 kinase (intrinsic ATPase, Kinase-Glo) assay; type: biochemical; conditions: Table 3a; read-out: Kd JNK2
JNK3 [3] = biological target: T3, JNK3 (Homo sapiens, UniProt P53779); experiment: JNK3 kinase (intrinsic ATPase, Kinase-Glo) assay; type: biochemical; conditions: Table 3a; read-out: Kd JNK3
JNK1 [4] = biological target: T1, JNK1; experiment: Promega NanoBRET intracellular target engagement (tracer K10 displacement), JNK1; type: cell-based
JNK2 [5] = biological target: T2, JNK2; experiment: Promega NanoBRET intracellular target engagement (tracer K10 displacement), JNK2; type: cell-based
JNK3 [6] = biological target: T3, JNK3; experiment: Promega NanoBRET intracellular target engagement (tracer K10 displacement), JNK3; type: cell-based
[7] = In vitro metabolism in mouse liver microsomes; conditions: mouse, microsomes
Description: (§1) The target product profile seeks to deliver JNK inhibitor as a once daily oral administration. To prioritize compounds for further development, in vitro metabolism of several CDD JNK inhibitors were determined to approximate the plasma half-life and the rate of metabolism of the compounds in vivo.

[8] = In vitro metabolism in human liver microsomes; conditions: human, microsomes
Description: as §1

[9] = test system: 12Z endometriotic epithelial cells; experiment: IL-1β-stimulated pro-inflammatory gene expression (qPCR) in 12Z cells; type: cell-based, human; conditions: relative to bentamapimod
Text: These studies indicate that NanoBRET assays are an innovative technical platform to measure target engagement of CDD JNK inhibitors with the target JNK1, JNK2 or JNK3. As further evidence that JNK inhibitors address disease-relevant endpoints, biological responses of JNK inhibitors are provided herein, as measured in target tissue cellular models. 12Z immortalized endometriotic epithelial cells and patient-derived endometriotic stromal cells have been cultured with reference compound bentamapimod, CDD-2628, and CDD-2728. To exemplify the effects of CDD-2628 and CDD-2728 in the endometrial cell cultures, gene expression was measured using qPCR (expressed as fold-change relative to GAPDH, a housekeeping gene that is not affected by culture treatment effects) that reflect synthesis of inflammatory lipids (PTGS2), transformation of cells to a more migration and invasive potential (MMP-3) and chemoattractant cytokines to recruit pro-inflammatory immune cells (IL-6, IL-8).
In the culture systems employed in FIGS. 12A-12J, FIGS. 13A-13B, FIGS. 14A-14H, FIGS. 15A-15H, and FIGS. 16A-16F, the treatment of cells with IL-1β is used to mimic the peritoneal environment where IL-1β is most frequently measured at higher concentrations in patients with endometriosis (0.1 ng/mL-1 ng/mL) than in unaffected women (<0.01 ng/mL). The use of IL-1β to mimic the pro-inflammatory environment is a common method in cellular assays for endometriosis research. Although the concentrations of IL-1β in these cell cultures are higher than measured in peritoneal fluid, there are multiple other pro-inflammatory cytokines in peritoneal fluid that contribute to the pro-inflammatory environment.
Specifically, 12Z cells were plated at a density of 1×10^5 cells/well in a 12-well tissue culture plate, serum-starved overnight (17-18 h), pre-treated with vehicle (DMSO) or JNK inhibitor for 30 minutes, then stimulated with 10 ng/ml IL-1β in the presence or absence of the JNK inhibitors for 6 hours. After the 6-hour treatment, mRNA was extracted from the cells using the Qiagen RNEasy mini isolation kit and […] of mRNA was reverse transcribed into cDNA using the qScript cDNA Supermix (Quanta Biosciences). cDNA was amplified using SYBR Green Master Mix (Applied Biosystems) with quantitative Real Time PCR (BioRad CFX) using pre-designed and validated primers specific for genes encoding IL6, IL8, PTGS2/COX2, and MMP3 (BioRad). Relative quantification of these specific genes was calculated by the ΔΔCt method, normalizing their abundance relative to the internal housekeeping gene, GAPDH, followed by quantification relative to the vehicle-treated cells. Statistical analyses and visualizations were performed using a One Way ANOVA with a Tukey's multiple comparison post-hoc test on GraphPad Prism version 9.

CSNK1E = biological target: T4, CSNK1E (Homo sapiens, UniProt P49674); experiment: ThermoFisher SelectScreen, CSNK1E; type: binding
T4 construct: purchased ThermoFisher (SelectScreen)

MEK4 = biological target: T5, MEK4 (Homo sapiens, UniProt P45985); experiment: ThermoFisher SelectScreen, MEK4; type: binding
T5 construct: purchased ThermoFisher (SelectScreen)
T5 sequence (P45985 1-399): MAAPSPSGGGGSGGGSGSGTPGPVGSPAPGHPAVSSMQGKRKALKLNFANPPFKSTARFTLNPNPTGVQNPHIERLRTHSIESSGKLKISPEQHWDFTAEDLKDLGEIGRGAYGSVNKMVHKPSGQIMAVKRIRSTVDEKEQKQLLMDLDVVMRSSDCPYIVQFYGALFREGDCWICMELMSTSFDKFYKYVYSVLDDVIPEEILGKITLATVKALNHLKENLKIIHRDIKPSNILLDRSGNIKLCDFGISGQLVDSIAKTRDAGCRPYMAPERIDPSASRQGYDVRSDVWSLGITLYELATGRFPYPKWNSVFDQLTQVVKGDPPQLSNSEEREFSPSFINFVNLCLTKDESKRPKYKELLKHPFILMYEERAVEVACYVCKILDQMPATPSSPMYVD

hVPS34 = biological target: T6, hVPS34 (Homo sapiens, UniProt Q8NEB9); experiment: ThermoFisher SelectScreen, hVPS34; type: binding; conditions: Table 4
T6 construct: purchased ThermoFisher (SelectScreen, outsourced service)
Description: To mitigate violation of the linear initial velocity principle, which is a problem in end-point assays when doing dose-responses, the enzyme concentration was carefully optimized, in a total assay volume of 25 μL. The assay was performed using 10 μM ATP, 0.02% Tween-20, kinase buffer from Cell Signaling (#9802) in white 384-well plates. The kinase reaction was done for 30 or 60 min at 30° C., and detection of leftover ATP was measured according to Promega's protocol. […] Fractional activities were obtained from normalized data. Non-linear regression (GraphPad Prism7) and a modified Morrison equation for tight binding was used to determine apparent Ki values for inhibitors, assuming no particular mode of inhibition. An orthogonal binding assay (LanthaScreen) was outsourced to ThermoFisher Scientific's SelectScreen Services to determine IC50 values.
One of the earliest compounds to be synthesized with favorable enzymatic activity towards JNK1 and JNK3 was CDD-2346. A KINOMEscan was performed for CDD-2346 to establish whether the selectivity of this chemical scaffold was suitable or required optimization. […] To confirm that the activity against each kinase was a true result and not a false positive, CDD-2346 was evaluated in kinase assays using ThermoFisher SelectScreen platform. The results from these assays are provided herein (Table 4). The important innovative steps described are the optimization of selectivity a) for JNK isoforms; b) for kinases considered “in-pathway”; and c) to avoid kinases considered “out-of-pathway”.

JNK3 [10] = biological target: T3, JNK3; experiment: ThermoFisher SelectScreen, JNK3; type: binding
[11] = test system: immortalized human endometriotic epithelial cells (iHEEC); experiment: Phosphorylation of JNK and Jun in iHEEC; type: cell-based
Text: FIG. 26A depicts the effects of CDD-2728 and CDD-3013 on phosphorylation of the JNK enzyme itself (i.e., representing MEK4 inhibition) and phosphorylation of pSer63 and pSer73 on the transcription factor Jun in immortalized human endometriotic epithelial cells (iHEEC). The HEEC cells are a well characterized cell line that are relevant for the evaluation of inflammatory endpoints and measures of epithelial-to-mesenchymal transitions (EMT). […] This is consistent with the potency relationships of CDD-2728 relative to bentamapimod observed in cytokine gene expression described above in iHEEC cells and primary human stromal endometriotic cells. […] SP600125 has been frequently described as a poorly-selective JNK-I but in this context provides additional confirmation of inhibition of the JNK target kinase for CDD-2728. […] This adds further support to the critical role of JNK-1 to the therapeutic effect of the JNK inhibitors of the disclosure.

T2 sequence (P45984 whole entry): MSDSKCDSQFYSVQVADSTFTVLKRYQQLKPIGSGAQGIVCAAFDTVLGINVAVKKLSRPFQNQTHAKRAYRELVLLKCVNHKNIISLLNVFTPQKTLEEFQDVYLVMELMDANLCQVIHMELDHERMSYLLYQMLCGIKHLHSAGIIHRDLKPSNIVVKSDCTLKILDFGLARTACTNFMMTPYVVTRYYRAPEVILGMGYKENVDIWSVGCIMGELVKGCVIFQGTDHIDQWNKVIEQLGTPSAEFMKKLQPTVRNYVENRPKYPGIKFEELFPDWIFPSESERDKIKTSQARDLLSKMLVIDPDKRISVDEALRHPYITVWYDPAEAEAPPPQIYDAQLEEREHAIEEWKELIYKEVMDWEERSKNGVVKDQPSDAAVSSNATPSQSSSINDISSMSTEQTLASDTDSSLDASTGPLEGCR
T1 sequence (P45983 whole entry): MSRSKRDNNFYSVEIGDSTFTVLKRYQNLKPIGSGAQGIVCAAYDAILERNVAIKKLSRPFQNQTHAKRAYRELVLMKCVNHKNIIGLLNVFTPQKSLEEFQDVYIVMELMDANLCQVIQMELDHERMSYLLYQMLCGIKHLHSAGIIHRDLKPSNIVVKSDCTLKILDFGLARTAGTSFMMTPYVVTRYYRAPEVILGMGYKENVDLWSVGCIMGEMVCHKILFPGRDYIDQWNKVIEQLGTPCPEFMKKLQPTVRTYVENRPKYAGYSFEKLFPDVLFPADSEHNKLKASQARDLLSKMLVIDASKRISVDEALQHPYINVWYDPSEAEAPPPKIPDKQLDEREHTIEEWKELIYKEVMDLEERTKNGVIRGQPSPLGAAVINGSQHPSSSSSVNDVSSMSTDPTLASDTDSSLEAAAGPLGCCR
T3 sequence (P53779 whole entry): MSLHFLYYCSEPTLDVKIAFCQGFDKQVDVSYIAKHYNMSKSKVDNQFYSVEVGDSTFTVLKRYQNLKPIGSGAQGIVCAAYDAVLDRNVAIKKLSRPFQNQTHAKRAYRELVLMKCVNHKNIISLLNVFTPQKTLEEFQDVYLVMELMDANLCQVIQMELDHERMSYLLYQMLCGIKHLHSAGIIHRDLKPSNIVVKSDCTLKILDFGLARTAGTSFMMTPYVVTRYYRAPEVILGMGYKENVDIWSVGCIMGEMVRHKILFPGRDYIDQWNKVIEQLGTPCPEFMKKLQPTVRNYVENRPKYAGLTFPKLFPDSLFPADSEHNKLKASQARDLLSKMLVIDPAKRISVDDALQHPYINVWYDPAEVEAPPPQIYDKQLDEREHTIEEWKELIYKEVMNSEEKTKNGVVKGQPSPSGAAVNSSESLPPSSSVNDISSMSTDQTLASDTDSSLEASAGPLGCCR
T4 sequence (P49674 whole entry): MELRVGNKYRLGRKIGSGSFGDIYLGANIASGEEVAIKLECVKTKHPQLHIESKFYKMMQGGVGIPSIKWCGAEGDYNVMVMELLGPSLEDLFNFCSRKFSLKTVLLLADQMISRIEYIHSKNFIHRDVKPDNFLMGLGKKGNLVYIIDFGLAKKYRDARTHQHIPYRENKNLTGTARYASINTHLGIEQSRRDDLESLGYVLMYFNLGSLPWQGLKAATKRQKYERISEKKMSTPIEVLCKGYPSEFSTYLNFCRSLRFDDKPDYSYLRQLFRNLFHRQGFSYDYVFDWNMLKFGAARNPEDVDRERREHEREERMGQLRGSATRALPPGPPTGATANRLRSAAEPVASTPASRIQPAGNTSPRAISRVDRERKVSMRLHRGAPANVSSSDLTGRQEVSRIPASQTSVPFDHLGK
T6 sequence (Q8NEB9 whole entry): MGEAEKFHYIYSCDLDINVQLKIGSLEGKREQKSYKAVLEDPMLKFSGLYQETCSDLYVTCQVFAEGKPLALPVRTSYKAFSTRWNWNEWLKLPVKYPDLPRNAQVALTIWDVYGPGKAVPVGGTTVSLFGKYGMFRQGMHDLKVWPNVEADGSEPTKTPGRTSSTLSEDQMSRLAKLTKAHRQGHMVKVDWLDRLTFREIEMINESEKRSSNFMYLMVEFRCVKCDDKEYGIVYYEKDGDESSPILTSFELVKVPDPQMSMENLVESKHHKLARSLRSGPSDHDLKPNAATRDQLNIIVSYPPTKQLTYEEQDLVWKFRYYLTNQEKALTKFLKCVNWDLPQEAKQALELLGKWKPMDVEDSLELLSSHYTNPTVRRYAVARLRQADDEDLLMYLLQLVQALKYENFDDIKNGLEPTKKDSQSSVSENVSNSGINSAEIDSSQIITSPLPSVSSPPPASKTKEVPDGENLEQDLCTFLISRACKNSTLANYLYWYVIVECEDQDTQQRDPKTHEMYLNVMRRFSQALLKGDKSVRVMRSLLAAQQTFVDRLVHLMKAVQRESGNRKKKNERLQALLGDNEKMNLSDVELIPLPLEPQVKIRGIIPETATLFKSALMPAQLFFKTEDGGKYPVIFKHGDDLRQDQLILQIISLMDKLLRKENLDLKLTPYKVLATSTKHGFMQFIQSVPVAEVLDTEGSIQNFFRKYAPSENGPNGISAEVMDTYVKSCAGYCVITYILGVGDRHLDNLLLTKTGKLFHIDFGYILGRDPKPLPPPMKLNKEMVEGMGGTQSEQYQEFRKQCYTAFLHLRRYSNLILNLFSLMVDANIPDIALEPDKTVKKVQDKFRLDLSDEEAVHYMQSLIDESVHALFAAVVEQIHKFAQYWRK

Row | Kd (JNK1 [1]) [nM] | Kd (JNK2 [2]) [nM] | Kd (JNK3 [3]) [nM] | IC50 (JNK1 [4]) [nM] | IC50 (JNK2 [5]) [nM] | IC50 (JNK3 [6]) [nM] | half-life [7] [min] | half-life [8] [min] | solubility (Solubility) [µM] | Kd (CSNK1E) [nM] | Kd (MEK4) [nM] | Kd (hVPS34) [nM] | Kd (JNK3 [10]) [nM] | Compound | IL-8 expression [9] | phosphorylation of JNK1 (P46) and JNK2 (P54) [11] | phosphorylation of Jun at pSer63 and pSer73 [11] | IL-6 expression [9] | MMP-3 expression [9] | PTGS2 expression [9]
1 | 4.6 ± 1.9 | 1.22 ± 0.27 | 1.41 ± 0.3 | 11500 | 16100 | 15400 | 24 | 24.3 | 5.4 (≈ 2.47 µg/mL) |  |  |  |  | CN(C)C(=O)c1ccc(O)c(NC(=O)c2cc3c(-c4cnc5[nH]ccc5c4)cccc3s2)c1 [CDD-2938, N-(5-(dimethylcarbamoyl)-2-hydroxyphenyl)-4-(1H-pyrrolo[2,3-b]pyridin-5-yl)benzo[b]thiophene-2-carboxamide] |  |  |  |  |  | 
2 | 0.27 ± 0.08 | 3.14 ± 0.33 | 1.03 ± 0.07 | 1000 | 1100 | 2200 | 55.5 | 225 | 3.8 (≈ 1.74 µg/mL) |  |  |  |  | CN(C)C(=O)c1cc(NC(=O)c2nc3c(-c4cnc5[nH]ccc5c4)cccc3s2)ccc1O [CDD-2856, N-(3-(dimethylcarbamoyl)-4-hydroxyphenyl)-4-(1H-pyrrolo[2,3-b]pyridin-5-yl)benzo[d]thiazole-2-carboxamide] |  | inhibits the upstream phosphorylation of JNK1 and JNK2 | inhibits phosphorylation more effectively than Tanzisertib |  |  | 

Further lines, the compound ahead of its results:

Row | Compound | Kd (JNK1 [1]) [nM] | Kd (JNK2 [2]) [nM] | Kd (JNK3 [3]) [nM] | IC50 (JNK1 [4]) [nM] | IC50 (JNK2 [5]) [nM] | IC50 (JNK3 [6]) [nM] | half-life [7] [min] | half-life [8] [min] | solubility (Solubility) [µM] | Kd (CSNK1E) [nM] | Kd (MEK4) [nM] | Kd (hVPS34) [nM] | Kd (JNK3 [10]) [nM] | IL-8 expression [9] | phosphorylation of JNK1 (P46) and JNK2 (P54) [11] | phosphorylation of Jun at pSer63 and pSer73 [11] | IL-6 expression [9] | MMP-3 expression [9] | PTGS2 expression [9]
3 | O=C(Nc1ccc(O)c(C(=O)N2CCCCC2)c1)c1cc2c(-c3cnc4[nH]ccc4c3)cccc2s1 [CDD-2634, N-(4-hydroxy-3-(piperidine-1-carbonyl)phenyl)-4-(1H-pyrrolo[2,3-b]pyridin-5-yl)benzo[b]thiophene-2-carboxamide] | 0.29 ± 0.13 | 1.81 ± 0.19 | 2.62 ± 0.28 | 172 | 161 | 119 | 59 | 81.6 | 1.1 (≈ 0.546 µg/mL) |  |  |  |  | more potent inhibitors of IL-8 expression than bentamapimod |  |  |  |  | 
4 | CNCc1ccc(NC(=O)c2ccn3ncc(-c4cncc5ccccc45)c3c2)cc1 [CDD-2347, 3-(isoquinolin-4-yl)-N-(4-((methylamino)methyl)phenyl)pyrazolo[1,5-a]pyridine-5-carboxamide] | 0.39 ± 0.11 | 1.7 ± 0.12 | 1.38 ± 0.21 | 2200 | 990 | 2000 | 33.1 | 30.3 | 134 (≈ 54.7 µg/mL) | 3180 | 483 | 776 | 1.38 |  |  |  |  |  | 
5 | Oc1c2ccccc2c2c3c(cccc13)N=N2 [SP600125, reference compound] |  |  |  |  |  |  |  |  |  |  |  |  |  |  | MEK4-dependent phosphorylation of JNK1 and JNK2 | inhibits pSer63 and pSer73 Jun |  |  | 
6 | COc1ccc(NC(=O)c2cc3c(-c4cnc5[nH]ccc5c4)cccc3s2)cc1C(=O)N(C)C [CDD-2628, N-(3-(dimethylcarbamoyl)-4-methoxyphenyl)-4-(1H-pyrrolo[2,3-b]pyridin-5-yl)benzo[b]thiophene-2-carboxamide] | 1.83 ± 0.26 | 1.6 ± 0.17 | 0.52 ± 0.05 | 500 | 520 | 566 | 40.6 | 98.4 | 7.4 (≈ 3.48 µg/mL) |  |  |  |  | improved potency; also recorded: more effective than bentamapimod |  |  | concentration-dependent decreases | improved potency; also recorded: more effective than bentamapimod | concentration-dependent decreases
7 | COc1ccc(NC(=O)c2cc3c(-c4cnc5[nH]ccc5c4)cccc3s2)cc1C(=O)N1CCOCC1 [CDD-2635, N-(4-methoxy-3-(morpholine-4-carbonyl)phenyl)-4-(1H-pyrrolo[2,3-b]pyridin-5-yl)benzo[b]thiophene-2-carboxamide] | 0.16 ± 0.05 | 1.54 ± 0.13 | 0.76 ± 0.22 | 186 | 325 | 160 | 28.6 | 74.6 | 2.6 (≈ 1.33 µg/mL) |  |  |  |  |  |  |  |  |  | 
